Several values for one entry are separate records, joined by “and”; a condition that tells them apart may be missing. Equal values may be shown once.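 Compound exposure: 48 hours, 5 concentrations, 96-well plates. GI50 = concentration required for 50% inhibition of growth. TGI marks complete inhibition of growth.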 Where a SMILES comes first, the peptide text is derived from it. [ ]: non-standard residue; d: D form. The star is where a group is joined. NMeF = CN[C@@H](Cc1ccccc1)C(=O)O; NMeV = CN[C@H](C(=O)O)C(C)C; Boc = CC(C)(C)OC(=O)*; OBn = c1ccc(CO*)cc1
Columns and labels:
Assay in all cases: DTP human tumour cell line panel, 48 h
ACHN renal = system: ACHN renal
COLO 205 colon = system: COLO 205 colon
HCC-2998 colon = system: HCC-2998 colon
HCT-15 colon = system: HCT-15 colon
NCI-H23 lung = system: NCI-H23 lung
RPMI-8226 leukemia = system: RPMI-8226 leukemia
RXF 393 renal = system: RXF 393 renal
SF-295 CNS = system: SF-295 CNS
SK-MEL-5 melanoma = system: SK-MEL-5 melanoma
SW-620 colon = system: SW-620 colon

SMILES | GI50 (ACHN renal) [µM] | TGI (ACHN renal) [µM] | GI50 (COLO 205 colon) [µM] | TGI (COLO 205 colon) [µM] | GI50 (HCC-2998 colon) [µM] | TGI (HCC-2998 colon) [µM] | GI50 (HCT-15 colon) [µM] | TGI (HCT-15 colon) [µM] | GI50 (NCI-H23 lung) [µM] | TGI (NCI-H23 lung) [µM] | GI50 (RPMI-8226 leukemia) [µM] | TGI (RPMI-8226 leukemia) [µM] | GI50 (RXF 393 renal) [µM] | TGI (RXF 393 renal) | GI50 (SF-295 CNS) [µM] | TGI (SF-295 CNS) [µM] | GI50 (SK-MEL-5 melanoma) [µM] | TGI (SK-MEL-5 melanoma) [µM] | GI50 (SW-620 colon) [µM] | TGI (SW-620 colon)
CCn1c(-c2nonc2N)nc2cncc(C(=O)NCCNC)c21 | 11.2 | > 25 | 1.15 | 8.51 | 4.77 | > 25 | 5.98 | > 25 | 9.32 | > 25 | > 25 | > 25 | 2.57 | > 25 µM | > 25 | > 25 | > 16 | > 25 | 4.07 | > 25 µM
COc1ccccc1C(N)c1ccccc1 (stereo unspecified) | – | > 100 | – | > 100 | – | > 100 | – | > 100 | – | > 100 | – | > 100 | – | > 100 µM | – | > 100 | – | > 100 | – | > 100 µM
CCN(CC)CCCCNc1ncc2cc(-c3cc(OC)cc(OC)c3)c(NC(=O)NC(C)(C)C)nc2n1 | 3.92 | 16.4 | 8.08 | 22.1 | 12.7 | 26 | 3.63 | 17.5 | 11.1 | 30.1 | 4.92 | 27.9 | 1.63 | 11.4 µM | 3.59 | 10.3 | 6.19 | 18 | 8.15 | 23 µM
COC(=O)C1=C(c2ccc3c(c2)OCO3)OC(c2ccc3c(c2)OCO3)C1 (stereo unspecified) | – | > 100 | – | > 100 | – | > 100 | – | > 100 | – | > 100 | – | > 100 | – | > 100 µM | – | > 100 | – | > 100 | – | > 100 µM
COc1ccc2cc(Cn3cc[n+](Cc4ccc5ccccc5c4)c3)ccc2c1 | 14.3 | 30.4 | 1.44 | 3.28 | 2.11 | 5.28 | 15.8 | 32.4 | 2.37 | 12 | 1.33 | 3.65 | 1.75 | 4.59 µM | 4.95 | 21.9 | 1.33 | 2.62 | 3.12 | 14.1 µM
O=C(NCCNc1nccc(-c2c(-c3ccc(F)cc3)nc3sccn23)n1)c1ccccc1 | 2.98 | 49.2 | 1.84 | 14.6 | 17.4 | 40.1 | 3.81 | 39.3 | 10.9 | 45.1 | 5.88 | 27 | 6.19 | 28.3 µM | 6.97 | 27.5 | 1.66 | 13.3 | 7.44 | 85.6 µM
C=CC[C@@H]1/C=C(\C)C[C@H](C)C[C@H](OC)[C@H]2O[C@@](O)(C(=O)C(=O)N3CCCC[C@H]3C(=O)O[C@H](/C(C)=C/C3CC[C@@H](O)[C@H](OC)C3)[C@H](C)[C@@H](O)CC1=O)[C@H](C)C[C@@H]2OC (stereo partly specified) | 15.4 | 29.5 | 19.3 | 36.6 | 18.8 | 34.7 | 17.2 | 38.1 | 16.3 | 32.7 | 8.59 | 32.2 | 13.6 | 27.3 µM | 14.6 | 31.9 | 13.7 | 26.6 | 16.5 | 32.2 µM
CCC[CH2][Sn]1([CH2]CCC)[O]CC(CN2CCOCC2)[O]1 (stereo unspecified) | 3.02 | 9.61 | 3.58 | 9.59 | 8.82 | 21.6 | 6.4 | 18.6 | 2.41 | 6.13 | 1.44 | 4.7 | 1.65 | 3.31 µM | 2.46 | 10.9 | 5.4 | 18.2 | 1.99 | 5.44 µM
CCCCCCCCCCCCCCCCCC(=O)OCC(COC1OC(CS(=O)(=O)O)C(O)C(O)C1O)OC(=O)CCCCCCCCCCCCCCCCC (stereo unspecified) | – | > 100 | – | > 100 | – | > 100 | – | > 100 | – | > 100 | – | > 100 | – | > 100 µM | – | > 100 | – | > 100 | – | > 100 µM
COc1ccc(NC(=O)CC(=O)N2N=C(N(CCC#N)c3cccc(C)c3)CC2c2ccccc2)cc1 (stereo unspecified) | – | > 100 | – | > 100 | – | > 100 | – | > 100 | – | > 100 | – | > 100 | – | > 100 µM | – | > 100 | – | > 100 | – | > 100 µM
CCC(c1ccc2cc(O)ccc2c1)C(C)(C)C(=O)O (stereo unspecified) | – | > 100 | – | > 100 | – | > 100 | – | > 100 | – | > 100 | – | > 100 | – | > 100 µM | – | > 100 | – | > 100 | – | > 100 µM
CNC(=O)NC(CCCCNC(=O)OCc1ccccc1)C(=O)OCc1ccccc1 (stereo unspecified) | – | > 100 | – | 34.2 | – | > 72.9 | – | > 100 | – | > 100 | – | 67.4 | – | 53.6 µM | – | > 100 | – | 31.5 | – | > 100 µM
CCOC(=O)c1c(Cl)c2c(n1Cc1cccc(OC)c1)-c1oncc1CC2 | 4.54 | > 100 | 1.62 | 11.3 | 3.01 | 19.6 | 0.836 | > 100 | 3.55 | 60.6 | 5.15 | > 100 | 2.87 | 40.4 µM | 0.658 | 15.9 | 1.24 | 10.5 | 0.773 | > 100 µM
CC(C)[C@@H](C(=O)N1CCC[C@H]1C(=O)OCc1ccccc1)N(C)C(=O)[C@H](C(C)C)N(C)C(=O)[C@H](Cc1ccccc1)N(C)C(=O)[C@H](NC(=O)OC(C)(C)C)C(C)C (Boc-[dV][NMeF][NMeV][NMeV]P-OBn) | – | > 100 | 36.1 | > 100 | 68.9 | > 100 | – | > 100 | – | > 50 | 4.6 | > 100 | 22.4 | > 50 µM and 65.3 µM | > 100 | > 100 | – | > 100 | 12.5 | > 50 µM and 26.7 µM
Cc1cc(C)c2nc3nc(C)cc(C)c3c(N)c2c1 | 3.29 | 49.4 | 2.78 | 11.8 | 9.61 | 22.5 | 3.96 | 22.5 | 5.29 | 21.4 | 4.55 | 24.8 | 6.64 | 27.5 µM | 2.4 | 12 | 3.73 | 14.2 | 3.4 | 21.4 µM
O=NN/C(=C1\Nc2ccc([N+](=O)[O-])cc2NC1=O)C(O)c1ccc([N+](=O)[O-])cc1 (stereo unspecified) | – | > 100 | – | > 100 | – | > 100 | – | > 100 | – | > 100 | – | > 100 | – | > 100 µM | – | > 100 | – | > 100 | – | > 100 µM

— PubChem BioAssay (NCI)
